Test results: patent publication US8835433B2, “Optically pure diastereomers of 10-Propargyl-10-deazaaminopterin and methods of using same for the treatment of cancer” (Allos Therapeutics, Inc., priority 2010, dated 2014)

How the values were obtained:
[1] = test system: NCI-H460 (lung cancer) human tumor cell line; experiment: MTS growth inhibition assay, NCI-H460; assay type: cell-based
Description: (§1) The agents PDX, PDX-10a, PDX-10b, were evaluated for growth inhibitory activity against, MDA-MB-435, SKBR-3 and NCI-H460 human tumor cell lines. Growth inhibition was measured by MTS assay following three hours of continuous treatment and a seventy-two hour recovery incubation. The purpose of these studies was to determine the cytotoxic activity of the compounds in the tumor cell lines studies studied.
(§2) Materials and Methods. Preparation of PDX-10a and PDX-10b was performed as discussed in Examples 1-2. The PDX compounds were diluted in dimethylsulfoxide (DMSO) at a concentration of 20 mM. From this solution a stock solution of 2 mM was made by dilution with phosphate-buffered saline (PBS). This 2 mM stock solution in 10% DMSO/90% PBS was used to make 2× concentrations of the titration series in cell growth medium which was added to the cell cultures in a 1:1 ratio to make 1× concentrations. Cell lines—The human tumor cell lines: MDA-MB-435 (melanoma), SKBR-3 (breast cancer) and NCI-H460 (lung cancer) were cultured in RPMI medium (RPMI; Nova Tech, Grand Island, N.Y.) containing ten percent dialyzed fetal bovine serum (FBS; Nova Tech). Once cells reached seventy percent confluency, they were trypsinized and resuspended in an alternate media (RPMI containing five percent dialyzed FBS (Hyclone, Logan, Utah). One day prior to treatment (Day 0), cultures were suspended at a concentration of 1−7.5×10^4 cell/ml and 100 μl aliquots were plated into each well of a 96-well microtiter plate at a final concentration of 1×10^3-7.5×10^3 cells/well. Cells were incubated for 24 hours at 37° C. prior to exposure with agents.
(§3) Test Agents—racemic PDX, and individual diastereomers PDX-10a and PDX-10b were prepared as described above. Cells were treated 24 hours after plating (Day 1) with vehicle (media) alone or the above test agents for three hours at concentrations between 3 μM and 10 μM.
(§4) Single Agent Pulse Studies—Treatment with test agents or standard agents (controls) was initiated 24 hours after plating cells (Day 1). Cells were incubated at 37° C. with each of the test agents or a “chemococktail” (positive control) consisting of 215 μM Etoposide, 20 μM Taxol, 38.5 nM Velcade at final concentration for three hours. Following treatment, drug was removed, growth media added, and cells incubated at 37° C. for 72 hours. Following incubation, the viable cell number was quantified by the MTS assay described below. Experiments were repeated twice at the same concentrations. Results from these studies were used to calculate an IC50 value (concentration of drug that inhibits cell growth by 50% of the vehicle) for each compound. IC50 values were generated with Prizm software.
(§5) MTS Assay—Cell viability was determined using the MTS assay. This colorimetric procedure measures conversion of the MTS reagent (a tetrazolium salt) to formazan by living cells. Formazan production was quantified by spectrophotometric measurement at 490 nm and is proportional to viable cell number. For these studies, cells were cultured and treated as listed above. At the end of the treatment, 20 μl MTS tetrazolium (1.9 mg/ml in PBS, pH 6.0) was added to the cells for 1 hour at 37° C. Absorbance (OD) values were measured using a Dynex HD microplate reader at a single wavelength of 490 nm.
Data Analysis—Data from each experiment was collected and expressed as OD490 versus the log10 of the test agent concentration. Using the statistical analysis package of the Prizm analytical software (GraphPad, San Diego, Calif.), a non-linear curve fit was performed which yielded the 50% inhibition concentration of the test article (IC50).

[2] = Pharmacokinetics in dog (PDX-T-07054-D); assay type: in vivo; conditions: both sexes, dog, plasma, 0.7 mg/kg, dog, racemic mixture, males and females (mean)
Description: (§6) Bioanalytical methods were developed and validated for quantitation of the 2 pralatrexate C10 diastereomers (PDX-10a and PDX-10b) in human, rat and dog plasma and urine. The basic bioanalytical method involves extraction of PDX-10a and PDX-10b from the matrix utilizing C18 solid-phase extraction (SPE) cartridges followed by derivatization (methylation with acetyl chloride) of the diastereomers for separation detection. The derivatized extracts are injected on a chiral high-performance liquid chromatography (HPLC) column for quantitation of each diastereomer by liquid chromatography-tandem mass spectrometry (LC/MS/MS). The lower limit of quantitation (LLOQ) for both diastereomers in plasma and urine matrices was 0.5 ng/mL. […]

[3] = test system: SKBR-3 (breast cancer) human tumor cell line; experiment: MTS growth inhibition assay, SKBR-3; assay type: cell-based; conditions: SK-BR-3, SK-BR3 (breast), 3 h treatment, 72 h recovery
Description: as §1
Materials and Methods. Preparation of PDX-10a and PDX-10b was performed as discussed in Examples 1-2. The PDX compounds were diluted in dimethylsulfoxide (DMSO) at a concentration of 20 mM. From this solution a stock solution of 2 mM was made by dilution with phosphate-buffered saline (PBS). This 2 mM stock solution in 10% DMSO/90% PBS was used to make 2× concentrations of the titration series in cell growth medium which was added to the cell cultures in a 1:1 ratio to make 1× concentrations. Cell lines—The human tumor cell lines: MDA-MB-435 (melanoma), SKBR-3 (breast cancer) and NCI-H460 (lung cancer) were cultured in RPMI medium (RPMI; Nova Tech, Grand Island, N.Y.) containing ten percent dialyzed fetal bovine serum (FBS; Nova Tech). […]
Single Agent Pulse Studies—Treatment with test agents or standard agents (controls) was initiated 24 hours after plating cells (Day 1). […] Following incubation, the viable cell number was quantified by the MTS assay described below. […]
MTS Assay—Cell viability was determined using the MTS assay. […] Formazan production was quantified by spectrophotometric measurement at 490 nm and is proportional to viable cell number. […] Absorbance (OD) values were measured using a Dynex HD microplate reader at a single wavelength of 490 nm.
(§7) Data Analysis—Data from each experiment was collected and expressed as OD490 versus the log10 of the test agent concentration. […]

[4] = test system: MDA-MB-435 (melanoma) human tumor cell line; experiment: MTS growth inhibition assay, MDA-MB-435; assay type: cell-based; conditions: 3 h treatment, 72 h recovery
Description: as §1, §2, §3, §4, §5, §7

[5] = Pharmacokinetics in human (PDX-008, noncompartmental); assay type: in vivo; conditions: both sexes, human, plasma, intravenous, 30 mg/m^2, human, racemic mixture, males and females (mean)
Description: Bioanalytical methods were developed and validated for quantitation of the 2 pralatrexate C10 diastereomers (PDX-10a and PDX-10b) in human, rat and dog plasma and urine. The basic bioanalytical method involves extraction of PDX-10a and PDX-10b from the matrix utilizing C18 solid-phase extraction (SPE) cartridges followed by derivatization (methylation with acetyl chloride) of the diastereomers for separation detection. The derivatized extracts are injected on a chiral high-performance liquid chromatography (HPLC) column for quantitation of each diastereomer by liquid chromatography-tandem mass spectrometry (LC/MS/MS). The lower limit of quantitation (LLOQ) for both diastereomers in plasma and urine matrices was 0.5 ng/mL.
In humans, PDX-10b clearance was approximately 50% lower for both renal clearance (CLren) and nonrenal clearance (CLnonren). The lower clearance and ˜2-fold lower volume of distribution at steady state (Vdss) of PDX-10b are likely responsible for the 2-fold higher plasma exposure of PDX-10b compared with PDX-10a that is observed in humans. However, the plasma concentration-time profiles for both diastereomers declined in parallel, and terminal elimination half-life (t1/2term) for both diastereomers was virtually identical. The biological cause for the observed stereoselectivity across species is unknown, but may be due to isomeric differences in plasma protein binding. Isomeric differences in tissue distribution and/or renal and hepatobiliary transport may contribute as well.

[6] = test system: CWR22-RV1 (prostate) cell lines; experiment: MTS growth inhibition assay, CWR22-RV1; assay type: cell-based; conditions: Homo sapiens, CWR22Rv1, separate experiments
[7] = Pharmacokinetics in rat (PDX-T-07034-R); assay type: in vivo; conditions: both sexes, plasma, 5 mg/kg, racemic mixture, males and females (mean)
Description: as §6

[8] = C1D1, 30 mg/m^2 (0.81 mg/kg), n = 10
[9] = C1D6 or C2D6, 30 mg/m^2 (0.81 mg/kg), n = 6

Work on C#CCC(Cc1cnc2nc(N)nc(N)c2n1)c1ccc(C(=O)N[C@@H](CCC(=O)O)C(=O)O)cc1 (mixture of isomers) [PDX, (2S)-2-[[4-[(1RS)-1-[(2,4-diaminopteridin-6-yl)methyl]but-3-ynyl]benzoyl]amino]pentanedioic acid, reference compound] yielded an IC50 ([1]; Homo sapiens, NCI-H460, NCI-H460 (lung), 3 h treatment, 72 h recovery, MTS) of 100 nM, an IC50 ([1]; Homo sapiens, NCI-H460, NCI-H460 repeat assay) of 124 nM and an IC50 ([1]; NCI-H460 repeat assay) of 124 nM. The AUC(0-inf) ([2]; Day 1, 0.7 mg/kg (14 mg/m^2)) was 1560 ng·h/mL, the Cmax ([2]; Day 1, 0.7 mg/kg (14 mg/m^2)) was 1790 ng/mL and the AUC(0-inf) ([2]; Day 281, 0.7 mg/kg (14 mg/m^2)) was 1340 ng·h/mL. The Cmax ([2]; Day 281, 0.7 mg/kg (14 mg/m^2)) was 649 ng/mL, the IC50 [3] was 27.1 nM and the IC50 ([4]; Homo sapiens, MDA-MB-435, MDA-MB-435 (melanoma)) was 129 nM. It also gave an IC50 ([4]; MDA-MB-435 (melanoma)) of 129 nM, an AUC(0-inf) [5, 8] of 4460 ng·h/mL and a Cmax [5, 8] of 5820 ng/mL. For the same molecule, the AUC(0-inf) [5, 9] was 3530 ng·h/mL, the Cmax [5, 9] was 4960 ng/mL and the IC50 [6] was 8.3 nM. The AUC(0-inf) ([7]; Day 1, 5 mg/kg (30 mg/m^2)) was 4870 ng·h/mL, the Cmax ([7]; Day 1, 5 mg/kg (30 mg/m^2)) was 19200 ng/mL and the AUC(0-inf) ([7]; Day 85, 5 mg/kg (30 mg/m^2)) was 4500 ng·h/mL. The Cmax ([7]; Day 85, 5 mg/kg (30 mg/m^2)) was 14300 ng/mL.
